From publication PMC4891385 (Clinical Drug Investigation, 2016) come the findings set out here.

Like-named read-outs stand apart in the source and are kept apart here.

The conditions of series [1]: furosemide 40 mg with lesinurad 400 mg vs alone.
Substrate in series [2]: O=C(O)CSc1nnc(Br)n1-c1ccc(C2CC2)c2ccccc12
Kind of series: [14C]-lesinurad uptake, substrate test, OAT3 oocytes. It is filed as in vitro ADME. As to conditions: other: lesinurad as substrate of OAT3.

Substrate in series [3]: O=C(O)CSc1nnc(Br)n1-c1ccc(C2CC2)c2ccccc12
Nature of the series: [14C]-lesinurad uptake, substrate test, hOCT1 MDCK-II cells. The series is classed as in vitro ADME, human. As to conditions: other: lesinurad as substrate of OCT1.

The mark [4] stands for this setting: atorvastatin 40 mg with lesinurad 200 mg vs alone.

With `CC(C)c1c(C(=O)Nc2ccccc2O)c(-c2ccccc2)c(-c2ccc(F)cc2)n1CCC(O)CC(O)CC(=O)O` (stereo not drawn) [2-OH-atorvastatin], under setting [4], the “increase in AUC∞” value came out at 20% and the “increase in Cmax” value was 16%. The “increase in Cmax” value (atorvastatin 40 mg with lesinurad 400 mg vs alone) is on record as 17–34%.

`NS(=O)(=O)c1cc(C(=O)O)c(NCc2ccco2)cc1Cl` [Furosemide, furosemide]: in series [1], the “reduction of amount excreted in urine” value was “approximately 25%”.

B1: OAT3 (Homo sapiens) (protein)
chain: MTFSEILDRVGSMGHFQFLHVAILGLPILNMANHNLLQIFTAATPVHHCRPPHNASTGPWVLPMGPNGKPERCLRFVHPPNASLPNDTQRAMEPCLDGWVYNSTKDSIVTEWDLVCNSNKLKEMAQSIFMAGILIGGLVLGDLSDRFGRRPILTCSYLLLAASGSGAAFSPTFPIYMVFRFLCGFGISGITLSTVILNVEWVPTRMRAIMSTALGYCYTFGQFILPGLAYAIPQWRWLQLTVSIPFFVFFLSSWWTPESIRWLVLSGKSSKALKILRRVAVFNGKKEEGERLSLEELKLNLQKEISLAKAKYTASDLFRIPMLRRMTFCLSLAWFATGFAYYSLAMGVEEFGVNLYILQIIFGGVDVPAKFITILSLSYLGRHTTQAAALLLAGGAILALTFVPLDLQTVRTVLAVFGKGCLSSSFSCLFLYTSELYPTVIRQTGMGVSNLWTRVGSMVSPLVKITGEVQPFIPNIIYGITALLGGSAALFLPETLNQPLPETIEDLENWSLRAKKPKQEPEVEKASQRIPLQPHGPGLGSS
With B1, the Km – broadly, the concentration of substrate that gives half-maximal velocity – in series [2] is 2 µM.

B2: OCT1 (Homo sapiens) (protein)
chain: MPTVDDILEQVGESGWFQKQAFLILCLLSAAFAPICVGIVFLGFTPDHHCQSPGVAELSQRCGWSPAEELNYTVPGLGPAGEAFLGQCRRYEVDWNQSALSCVDPLASLATNRSHLPLGPCQDGWVYDTPGSSIVTEFNLVCADSWKLDLFQSCLNAGFLFGSLGVGYFADRFGRKLCLLGTVLVNAVSGVLMAFSPNYMSMLLFRLLQGLVSKGNWMAGYTLITEFVGSGSRRTVAIMYQMAFTVGLVALTGLAYALPHWRWLQLAVSLPTFLFLLYYWCVPESPRWLLSQKRNTEAIKIMDHIAQKNGKLPPADLKMLSLEEDVTEKLSPSFADLFRTPRLRKRTFILMYLWFTDSVLYQGLILHMGATSGNLYLDFLYSALVEIPGAFIALITIDRVGRIYPMAMSNLLAGAACLVMIFISPDLHWLNIIIMCVGRMGITIAIQMICLVNAELYPTFVRNLGVMVCSSLCDIGGIITPFIVFRLREVWQALPLILFAVLGLLAAGVTLLLPETKGVALPETMKDAENLGRKAKPKENTIYLKVQTSEPSGT
As for B2, the Km in series [3] amounted to 20 µM.
